Data on one compound can be found in patent US8445473B2, “Heteroaryl-substituted bicyclic Smac mimetics and the uses thereof” (The Regents of the University of Michigan, priority 2008, dated 2013).

The term IC50 denotes the point on the concentration scale where inhibition reaches its midpoint. Higher therefore signals weaker potency in that assay. As a reminder, the AUC(0-inf) is the area under the concentration-time curve extrapolated to infinity. Read a low AUC(0-inf) as low exposure. For orientation: Cmax means the highest concentration seen after dosing. The term Tmax denotes the time from dosing to the highest level. As a reminder, the half-life is the time needed for the level to fall by half in the phase considered.

For one series, the target named is XIAP BIR3 protein (Homo sapiens, UniProt P98170). Put plainly: Fluorescence polarization competitive binding assay to XIAP BIR3. The settings on record: FP competitive binding, SM5F or SM-F1 as the tracer.
From the text: A sensitive and quantitative in vitro binding assay using the fluorescence polarization (FP) based method was used to determine the binding affinity of Smac mimetics to XIAP protein (Nikolovska-Coleska et al., Anal. Biochem. 332:261-73 (2004)). For this assay, 5-carboxyfluorescein (5-Fam) was coupled to the lysine side chain of the mutated Smac peptide, AbuRPF-K-(5-Fam)-NH2 (termed SM5F). Another fluorescently tagged Smac mimetic (termed SM-F1) with higher affinities than SM5F was also used.
(§1) In competitive binding experiments using SM5F as the tracer to XIAP BIR3 protein, the tested compound was incubated with XIAP BIR3 protein (30 nM) and SM5F (5 nM) in the assay buffer (100 mM potassium phosphate, pH 7.5; 100 μg/ml bovine gamma globulin; 0.02% sodium azide, Invitrogen). Dose-dependent competitive binding FP experiments were carried out with serial dilutions of tested compounds. For each assay, the bound peptide control containing recombinant XIAP BIR3 protein and SM5F (equivalent to 0% inhibition) and free peptide control containing only free SM5F (equivalent to 100% inhibition) will be included. The polarization values were measured after 3 hrs of incubation when the binding reached equilibrium using an ULTRA READER (Tecan U.S. Inc., Research Triangle Park, N.C.). IC50 values, the inhibitor concentration at which 50% of bound peptide is displaced, will be determined from a plot using nonlinear least-squares analysis. Curve fitting will be performed using GRAPHPAD PRISM software (GraphPad Software, Inc., San Diego, Calif.).
as §1, with “using SM-F1” for “using SM5F”, “protein (10” for “protein (30”, “and SM-1F (2” for “and SM5F (5”, “and SM-1F” for “and SM5F”, “free SM-1F” for “free SM5F”
Negative controls containing protein/tracer complex only (equivalent to 0% inhibition), and positive controls containing only free tracers (equivalent to 100% inhibition), were included in each assay plate. FP values were measured as described above. IC50 values were determined by nonlinear regression fitting of the competition curves. The Ki values of competitive inhibitors were calculated using the equation described before (Nikolovska-Coleska et al., Anal. Biochem. 332:261-73 (2004)), based upon the measured IC50 values, the Kd values of the tracer to different proteins, and the concentrations of the proteins and tracers in the competitive assays. Ki values were also calculated using a commonly used equation known in the literature (Huang, X. J. Biomol. Screen. 8:34-38 (2003)).
Background: In fluorescence polarisation assays a small probe gives low polarisation when free and higher when bound to something large.

Series [1] deals with T1, cIAP2 BIR3 domain (residues 238-349) (Homo sapiens, UniProt Q13489).
T1 construct: cIAP2 BIR3 domain (residues 238-349); His-tag
Put plainly: Fluorescence polarization competitive binding assay to cIAP2 BIR3. The settings on record: FP competitive binding, SM5F or SM-F1 as the tracer. On the procedure: (§2) In order to test the binding ability of conformationally constrained Smac mimetics to other IAP proteins (cIAP1 and cIAP2) binding assay conditions were developed. The recombinant cIAP1 BIR3 domain (residues 253-363), cIAP2 BIR3 domain (residues 238-349), fused to a His-tag, were used in the binding assays. Competitive binding assays for other IAP proteins are performed similarly as that described for XIAP BIR3.
(§3) In competitive binding experiments using SM5F as the tracer to cIAP-1 BIR3 protein, the tested compound was incubated with cIAP-1 BIR3 protein (10 nM) and SM5F (2 nM) in the assay buffer. In competitive binding experiments using SM5F as the tracer to cIAP-2 BIR3 protein, the tested compound was incubated with cIAP-2 BIR3 protein (25 nM) and SM5F (2 nM) in the assay buffer. All other procedures for cIAP-1 BIR3 and cIAP-2 BIR3 proteins were the same as those used for XIAP BIR3 protein competitive assays.
(§4) In competitive binding experiments using SM-F1 as the tracer to cIAP-1 BIR3 protein, the tested compound was incubated with cIAP-1 BIR3 protein (3 nM) and SM-F1 (1 nM) in the assay buffer. In competitive binding experiments using SM-F1 as the tracer to cIAP-2 BIR3 protein, the tested compound was incubated with cIAP-2 BIR3 protein (5 nM) and SM-F1 (1 nM) in the assay buffer.

In series [2] the test system is ovarian cancer SK-OV-3 cell line. Put plainly: Induction of cell death, trypan blue exclusion assay. Type of series: cell-based, human. The settings on record: SK-OV-3, 48 hours, FIG. 3. On the procedure:
(§5) The ability of SM-1238 to induce cell death was tested in the breast cancer MDA-MB-231 and ovarian cancer SK-OV-3 cell lines (FIG. 3). Cells were treated with SM-1238 for 48 hours and cell viability was determined using the trypan blue exclusion assay.

The subject of series [3] is breast cancer MDA-MB-231 cell line. Described as above. The format is cell-based, human. The settings on record: MDA-MB-231, 48 hours, FIG. 3. The procedure: as §5
Series [4] is described as follows: Pharmacokinetics in rats following oral administration. The conditions noted are these: rat, in vivo, male Sprague-Dawley rats, 25 mg/kg, mean±SD.
Series [5] deals with MDA-MB-231 human breast cancer cell line. Put plainly: Cell growth inhibition, WST-8 assay. The format is cell-based. The settings on record: MDA-MB-231, 96 h, 4 days. On the procedure: (§6) The effect of the compounds of the present invention on the growth of various cancer cell lines was tested. Cells were seeded in 96-well flat bottom cell culture plates at a density of 3000 cells/well with a tested compound and incubated at 37° C. in an atmosphere of 95% air and 5% CO2 for 4 days. The rate of cell growth inhibition after treatment with different concentrations of the compound was determined using a WST-8 kit (2-(2-methoxy-4-nitrophenyl)-3-(4-nitrophenyl)-5-(2, 4 disulfophenyl)-2H-tetrazolium monosodium salt; Dojindo Molecular Technologies, Inc., Gaithersburg, Md.). WST-8 was added at a final concentration of 10% to each well, and then the plates were incubated at 37° C. for 2-3 hrs. The absorbance of the samples was measured at 450 nm using a ULTRA Tecan Reader (Molecular Device). The concentration of the tested compound that inhibited cell growth by 50% (IC50) was calculated by comparing absorbance in untreated cells and the cells treated with the tested compound.
On the technique in general: Tetrazolium dyes change colour on reduction, which living cells bring about.

Series [6] has as its system SK-OV-3 ovarian cancer cell line. Put plainly: Cell growth inhibition, WST-8 assay. The format is cell-based. The conditions noted are these: Homo sapiens, SK-OV-3, 96 h, 4 days. On the procedure:
as §6

Series [7] deals with T2, cIAP1 BIR3 domain (residues 253-363) (Homo sapiens, UniProt Q13490).
T2 construct: The recombinant cIAP1 BIR3 domain (residues 253-363); His-tag
Put plainly: Fluorescence polarization competitive binding assay to cIAP1 BIR3. The conditions noted are these: FP competitive binding, SM5F or SM-F1 as the tracer. The procedure: as §2, §3, §4

T2 sequence (Q13490 253-363): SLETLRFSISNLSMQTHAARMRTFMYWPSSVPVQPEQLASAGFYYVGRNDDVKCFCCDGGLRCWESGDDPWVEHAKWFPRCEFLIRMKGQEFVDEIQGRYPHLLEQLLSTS
Chain of XIAP BIR3 protein (P98170 241-356 limits assumed): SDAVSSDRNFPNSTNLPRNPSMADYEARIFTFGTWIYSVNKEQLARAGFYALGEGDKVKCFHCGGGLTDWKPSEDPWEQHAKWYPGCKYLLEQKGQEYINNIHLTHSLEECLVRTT
T1 sequence (Q13489 238-349): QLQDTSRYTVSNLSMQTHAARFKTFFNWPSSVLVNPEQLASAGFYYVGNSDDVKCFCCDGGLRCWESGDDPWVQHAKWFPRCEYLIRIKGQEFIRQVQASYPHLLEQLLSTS

As to `CN[C@@H](C)C(=O)N[C@H]1CN(C(=O)CC(C)C)CC[C@H]2CC[C@@H](c3nc4c(-c5ccccc5)cccc4[nH]3)N2C1=O` [SM-1238], the IC50 at XIAP BIR3 protein is below 200 nM; in series [1] it was below 100 nM; in series [5] it was below 3000 nM; in series [6] it was below 3000 nM; in series [7], below 100 nM. Also, the “induction of cell death” value in series [2] and in series [3] was “induced cell death in both cell lines in a concentration-dependant fashion” throughout. Further, the AUC(0-inf) in series [4] (n=3) was 7100 ± 931 ng·h/mL. This compound registered a peak concentration (Cmax) in series [4] (n=3) of 831 ± 135 ng/mL. The Tmax in series [4] (n=3) stood at 2 ± 1.7 h. Further, the half-life in series [4] (n=3, read-out: half-life (T½) (converted)) is 3.7 ± 2 h.
